One assay relates to DH5α expressing CTX-M-1. Description: Whole-cell NMR β-lactamase hydrolysis assay, DH5α + CTX-M-1. The class given is cell-based, E. coli. To be noted: DH5α + CTX-M-1, 100 μM, 60 min.
The next assay relates to DH5α cells –βla. Nature of the assay: Whole-cell NMR β-lactamase hydrolysis assay, DH5α without β-lactamase. The class given is cell-based, E. coli. As to conditions: DH5α – CTX-M-1, 100 μM, 60 min.
In a further assay the target is T1, recombinant DNA gyrase (Escherichia coli, UniProt P0AES4+P0AES6).
T1 construct: purchased Inspiralis
T1 sequence (P0AES4 whole entry, one chain of several): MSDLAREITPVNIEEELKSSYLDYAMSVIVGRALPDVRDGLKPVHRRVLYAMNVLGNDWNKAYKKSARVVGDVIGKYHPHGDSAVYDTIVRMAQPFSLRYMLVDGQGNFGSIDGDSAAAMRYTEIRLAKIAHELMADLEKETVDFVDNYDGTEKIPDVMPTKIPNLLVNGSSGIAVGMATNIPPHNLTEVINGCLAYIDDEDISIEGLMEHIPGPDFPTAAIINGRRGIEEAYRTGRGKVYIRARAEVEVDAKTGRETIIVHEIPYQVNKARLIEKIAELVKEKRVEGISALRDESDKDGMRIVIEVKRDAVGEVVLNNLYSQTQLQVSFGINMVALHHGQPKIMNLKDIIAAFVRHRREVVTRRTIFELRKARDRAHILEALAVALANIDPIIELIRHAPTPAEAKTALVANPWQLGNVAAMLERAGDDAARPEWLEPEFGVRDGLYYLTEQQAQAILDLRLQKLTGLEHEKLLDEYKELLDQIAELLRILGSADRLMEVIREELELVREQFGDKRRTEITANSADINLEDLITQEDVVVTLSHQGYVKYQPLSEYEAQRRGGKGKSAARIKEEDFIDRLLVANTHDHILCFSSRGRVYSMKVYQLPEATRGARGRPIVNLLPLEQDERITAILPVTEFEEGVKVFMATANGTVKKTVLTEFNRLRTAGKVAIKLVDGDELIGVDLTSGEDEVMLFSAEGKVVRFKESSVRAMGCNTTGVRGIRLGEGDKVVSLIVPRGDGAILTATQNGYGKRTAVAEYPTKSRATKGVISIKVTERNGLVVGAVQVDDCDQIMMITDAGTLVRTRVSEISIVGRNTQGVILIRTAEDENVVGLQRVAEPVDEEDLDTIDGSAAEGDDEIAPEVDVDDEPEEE
Nature of the assay: Recombinant DNA gyrase supercoiling assay ± CTX-M-15. The class given is biochemical, E. coli. As to conditions: ± CTX-M-15.

In another assay the test system is CFT073 + pSU18 + CTX-M-1. Nature of the assay: Whole-cell NMR β-lactamase hydrolysis assay, CFT073 + CTX-M-1. Type of assay: cell-based, E. coli. As to conditions: 100 μM compound at 1 h by whole-cell NMR assay.
In another assay the test system is E. coli strain DH5α. Description: MIC, broth microdilution, E. coli DH5α. Type of assay: cell-based. To be noted: for MIC value DH5α: E. coli DH5α without β-lactamase. As for the experimental part: Analysis of the literature identified the amide functionality at C-7 of the cephem ring as central to PBP and β-lactamase activity,[44]−[51] and therefore structural changes at this position provided the initial focus of investigation. By use of cephalothin 7 (Table 1) as the starting point, analogues were prepared to explore bioisosteric replacement,[52],[53] functionalities present in early generation β-lactam antibiotics, and to probe steric and electronic tolerance.[54],[55] All compounds were synthesized according to the previously reported methods (Figure S1 in Supporting Information).[55],[56] Antibacterial activity was assessed by determining the minimal concentration required to inhibit bacterial growth, known as the minimal inhibitory concentration (MIC), against the E. coli strain DH5α ± expression of the ESBL TEM-116.[57] The susceptibility to β-lactamase mediated hydrolysis was assessed by determining the physiological efficiency (kcat/Km) of hydrolysis by recombinant AmpC protein.[3],[58],[59] […]
pNDM pSU18 containing the native coding sequence for NDM-1 under the Jiménez-control of the native promoter Castellanos et […]
pKPC pSU18 containing the native coding sequence for KPC-3 under the Brem et al., control of the native promoter 20166
Transformation of E. coli with plasmids
Plasmids were introduced via heat shock into chemically competent DH5a and via electroporation into E. coli CFT073 following published protocols.8 […]
The bacterial strains and plasmids used in this study are detailed in Supplementary Table 1.
E. coli was grown in Mueller-Hinton Broth (MHB) or Lennox Broth (LB) at 37 °C, with shaking (180 r.p.m.) overnight (16-18 h). […]
MIC assays were performed in 96-well thermo scientific Nuclon Delta Surface plates and MICs were determined in accordance with the broth microdilution protocol.7 E. coli grown to stationary-phase in MHB or LB were adjusted to OD600 nm of 0.05 in MHB and […]
determined as the lowest concentration of antibiotic that inhibited visible bacterial growth.
OD595 measurements were recorded on a BioRad 1Mark Microplate Reader. […]
subsequently incubated at 37 °C with shaking (180 r.p.m.) and bacterial viability determined […]
Each compound was incubated for 1 hour at room temperature in 100 mM NaPO4 (pH 7) ± 0.5 M NaOH. The wavelength at which the difference between un-hydrolysed and hydrolysed compound was the greatest was selected (typically 263 nm) and a compound concentration vs. absorbance standard curve was generated. […] Recombinant Amp-C in assay buffer was added immediately before incubatio n in the microplate reader at 37 °C. UV absorbance was measured every 20 s for 1 h on a BMG LABTECH SPECTROstarNano. Kinetic parameters were determined by half -life analysis. […]
(In general: Broth dilution looks for growth in wells or tubes with falling amounts of substance.)

The subject of a further assay is CFT073 + pSU18 (pEMP). Description: microbe, parasite or virus in culture. As to conditions: Escherichia coli, read-out: MIC value CFT073 + pSU18, empty plasmid, no β-lactamase. Type of assay: cell-based, E. coli.
The subject of the next assay is DH5α + TEM-116. Description: Whole-cell NMR β-lactamase hydrolysis assay, DH5α + TEM-116. Type of assay: cell-based, E. coli. To be noted: DH5α + TEM-116, 100 μM, 90 min.
A further assay has as its target T2, recombinant AmpC protein (Escherichia coli, UniProt P00811).
T2 construct: purchased Abcam ab104926
The class given is biochemical.

Structures are written as SMILES.

T2 sequence (P00811 20-377): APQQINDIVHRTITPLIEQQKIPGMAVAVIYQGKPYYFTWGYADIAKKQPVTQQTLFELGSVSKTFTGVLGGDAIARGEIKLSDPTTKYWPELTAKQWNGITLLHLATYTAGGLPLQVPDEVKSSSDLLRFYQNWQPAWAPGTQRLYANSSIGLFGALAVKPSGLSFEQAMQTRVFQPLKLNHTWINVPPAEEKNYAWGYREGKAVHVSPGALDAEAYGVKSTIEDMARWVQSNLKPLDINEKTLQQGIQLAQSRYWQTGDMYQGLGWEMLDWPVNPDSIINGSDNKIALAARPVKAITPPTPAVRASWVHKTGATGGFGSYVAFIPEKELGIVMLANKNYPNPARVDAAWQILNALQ

Consider `CC(=O)OCC1=C(C(=O)O)N2C(=O)[C@@H](NC(=O)Cc3cccs3)[C@H]2SC1` [Ceph 7, cephalothin, reference compound], for which the “% hydrolysis by NMR +βla” value with DH5α expressing CTX-M-1 (listed as cepaholothin 7) was “complete hydrolysis”. In the assay with DH5α cells –βla, the “% hydrolysis by NMR –βla” value is recorded as 0%.
Regarding `O=C(O)c1cn(C2CC2)c2cc(N3CCNCC3)c(F)cc2c1=O` [Ciprofloxacin 31, ciprofloxacin, reference compound], on recombinant DNA gyrase, the “effect of CTX-M-15 on DNA gyrase inhibitory activity” value was “not affected by CTX-M-15”.
Turning to `CC(=O)OCC1=C(C(=O)O)N2C(=O)[C@@H](NC(=O)[C@H](C)c3ccccc3)[C@H]2SC1` [compound 10, (6R,7R)-3-(Acetoxymethyl)-8-oxo-7-((R)-2-phenylpropanamido)-5-thia-1-azabicyclo[4.2.0]oct-2-ene-2-carboxylic Acid], in the assay on CFT073 + pSU18 + CTX-M-1, the “% hydrolysis in CFT073 + pSU18 + CTX-M-1” value worked out at 0%.
As to `CC(=O)OCC1=C(C(=O)O)N2C(=O)[C@@H](NC(=O)Cc3ccccc3)[C@H]2SC1` [compound 11, (6R,7R)-3-(Acetoxymethyl)-8-oxo-7-(2-phenylacetamido)-5-thia-1-azabicyclo[4.2.0]oct-2-ene-2-carboxylic Acid], in the assay with E. coli strain DH5α, the “increase in MIC value against E. coli DH5α compared to cephalothin” value came to 4 fold.
Turning to `CC(=O)OCC1=C(C(=O)O)N2C(=O)[C@@H](NC(=O)Cc3ccc(C)cc3)[C@H]2SC1` [compound 12, (6R,7R)-3-(Acetoxymethyl)-8-oxo-7-(2-(p-tolyl)acetamido)-5-thia-1-azabicyclo[4.2.0]oct-2-ene-2-carboxylic Acid], the MIC in the assay on CFT073 + pSU18 (pEMP) turned out to be 100 µM.
The same measure, in the same setting: then `CC(=O)OCC1=C(C(=O)O)N2C(=O)[C@@H](NC(=O)Cc3ccc(F)cc3)[C@H]2SC1` [compound 13, (6R,7R)-3-(Acetoxymethyl)-7-(2-(4-fluorophenyl)acetamido)-8-oxo-5-thia-1-azabicyclo[4.2.0]oct-2-ene-2-carboxylic Acid], with 100 µM; and `CC(=O)OCC1=C(C(=O)O)N2C(=O)[C@@H](NC(=O)Cc3ccc(Cl)cc3)[C@H]2SC1` [compound 14, (6R,7R)-3-(Acetoxymethyl)-7-(2-(4-chlorophenyl)acetamido)-8-oxo-5-thia-1-azabicyclo[4.2.0]oct-2-ene-2-carboxylic Acid], with 100 µM; and `CC(=O)OCC1=C(C(=O)O)N2C(=O)[C@@H](NC(=O)Cc3ccc(Br)cc3)[C@H]2SC1` [compound 15, (6R,7R)-3-(Acetoxymethyl)-7-(2-(4-bromophenyl)acetamido)-8-oxo-5-thia-1-azabicyclo[4.2.0]oct-2-ene-2-carboxylic Acid], with 100 µM.
Regarding `CC(=O)OCC1=C(C(=O)O)N2C(=O)[C@@H](NC(=O)Cc3ccc(-c4ccccc4)cc3)[C@H]2SC1` [compound 16, (6R,7R)-7-(2-([1,1′-Biphenyl]-4-yl)acetamido)-3-(acetoxymethyl)-8-oxo-5-thia-1-azabicyclo[4.2.0]oct-2-ene-2-carboxylic Acid], in the assay on E. coli strain DH5α, the “MIC value DH5α” value is “no measurable MIC values”. Besides, the “% hydrolysis by NMR +βla” value in the assay on DH5α expressing CTX-M-1 is recorded as 100%. Further, in the assay with DH5α cells –βla, the “% hydrolysis by NMR –βla” value turned out to be 0%.
In the case of `CC(=O)OCC1=C(C(=O)O)N2C(=O)[C@@H](NC(=O)Cc3ccc(Oc4ccccc4)cc3)[C@H]2SC1` [compound 17, (6R,7R)-3-(Acetoxymethyl)-8-oxo-7-(2-(4-phenoxyphenyl)acetamido)-5-thia-1-azabicyclo[4.2.0]oct-2-ene-2-carboxylic Acid], in the assay on E. coli strain DH5α, the “MIC value DH5α” value is “no measurable MIC values”. In addition, the “% hydrolysis by NMR –βla” value in the assay on DH5α cells –βla is 0%. Also, the “% hydrolysis by NMR +βla” value in the assay with DH5α + TEM-116 came to 54%.
On to `CC(=O)OCC1=C(C(=O)O)N2C(=O)[C@@H](NC(=O)Cc3cccc(C)c3)[C@H]2SC1` [compound 18, (6R,7R)-3-(acetoxymethyl)-8-oxo-7-(2-(m-tolyl)acetamido)-5-thia-1-azabicyclo[4.2.0]oct-2-ene-2-carboxylic Acid], for which, on recombinant AmpC protein, the “increase in kcat/Km compared to cephalothin” value was 3 fold and the “increase in kcat/Km compared to para-methyl 12” value worked out at 5 fold.
Consider `CC(=O)OCC1=C(C(=O)O)N2C(=O)[C@@H](NC(=O)Cc3cccc(Oc4ccccc4)c3)[C@H]2SC1` [compound 19, (6R,7R)-3-(Acetoxymethyl)-8-oxo-7-(2-(3-phenoxyphenyl)acetamido)-5-thia-1-azabicyclo[4.2.0]oct-2-ene-2-carboxylic Acid], for which the “% hydrolysis in CFT073 + pSU18 + CTX-M-1” value in the assay with CFT073 + pSU18 + CTX-M-1 is on record as 0%. Besides, the “MIC value DH5α” value with E. coli strain DH5α is listed as “no measurable MIC values”.
On to `CC(=O)OCC1=C(C(=O)O)N2C(=O)[C@@H](NC(=O)C3CCCCC3)[C@H]2SC1` [compound 25, (6R,7R)-3-(Acetoxymethyl)-7-(cyclohexanecarboxamido)-8-oxo-5-thia-1-azabicyclo[4.2.0]oct-2-ene-2-carboxylic Acid], for which, in the assay with CFT073 + pSU18 + CTX-M-1, the “% hydrolysis in CFT073 + pSU18 + CTX-M-1” value was determined as 0%.
For `CCCCCC(=O)N[C@@H]1C(=O)N2C(C(=O)O)=C(COC(C)=O)CS[C@H]12` [compound 28, (6R,7R)-3-(Acetoxymethyl)-7-hexanamido-8-oxo-5-thia-1-azabicyclo[4.2.0]oct-2-ene-2-carboxylic Acid], the MIC in the assay on CFT073 + pSU18 (pEMP) turned out to be 100 µM.

Source of the values: paper PMC6511942, “Exploitation of Antibiotic Resistance as a Novel Drug Target: Development of a β-Lactamase-Activated Antibacterial Prodrug” (Journal of Medicinal Chemistry, 2019).
